Measurements reported in patent US8637544B2, “Neurite formation promoter” (Senju Pharmaceutical Co., Ltd., priority 2007, dated 2014).

Key:
[1] = test system: cultured rabbit trigeminal nerve cells; experiment: Promoting effect on neuritogenesis in cultured rabbit trigeminal nerve cells (Test Example 1); type: cell-based; conditions: 0.1 nM (0.026 ng/mL), 48 h culture after addition; mean±SD, N=5; control 29.5±8.7%
From the text: (§1) Japanese White rabbits (4 days old, male) purchased from Oriental Yeast Co., Ltd. were used.
N-(1-acetylpiperidin-4-yl)-4-fluorobenzamide (hereinafter referred to as Compound A) was used.
Rabbit trigeminal nerve cells were isolated according to the report of Chan et al. (Kwan Y. Chan and Richard H. Haschke. Exp. Eye Res. 41: 687-699, 1985). Specifically, a rabbit underwent cardiac perfusion with physiological saline under anesthesia with pentobarbital sodium injection (Dainippon Sumitomo Pharma), after which the trigeminal ganglia thereof were cut out. […]
(§2) After the 48 hours of cultivation following the addition, the rabbit trigeminal nerve cells were immersed and fixed in 10% neutrally buffered formaldehyde solution at room temperature for 20 minutes. The specimens fixed were fluorescently stained using the anti-neurofilament 200 antibody (Sigma-Aldrich), which specifically recognizes neurofilaments constituting nerve cell bodies and neurites, and the cells stained were examined under a fluorescence microscope (Olympus). Stained cell were incorporated as images from the fluorescence microscope into a computer.
To evaluate the degree of neuritogenesis in the cultured rabbit trigeminal nerve cells, cell body diameters and neurite lengths were measured on the computer-captured stained cell images using image analysis software (Image-Pro Plus Ver. 4.5.1, Media Cybernetics). […]

[2] = test system: rabbit retinal nerve cells; experiment: Promoting effect on neuritogenesis in rabbit retinal cells (Test Example 2); type: cell-based; conditions: 0.1 nM (0.026 ng/mL), 48 h culture after addition; FIG. 2
Experimental: as §1
A rabbit underwent cardiac perfusion with physiological saline under anesthesia with pentobarbital sodium injection (Dainippon Sumitomo Pharma), after which the eyeballs were extirpated and the retinas were isolated. The retinas isolated were placed in a papain solution (1 mg/mL, Sigma-Aldrich Japan K.K.) suspended in Hanks' balanced salt solution (HBSS, Invitrogen), and subjected to enzymatic digestion at 37° C. for 30 minutes. Thereafter, Leibovitz's L-15 Medium (L-15, Invitrogen) was used to prepare reagents. After the suspension was allowed to stand, the supernatant was discarded, 3 mL of a trypsin inhibitor solution (2 mg/mL trypsin inhibitor, 0.004% DNase and 1 mg/mL Bovine Serum Albumin dissolved in L-15, pH 7.4) was added, and pipetting was performed. After the solution was allowed to stand, the supernatant was discarded, another 3 mL of the trypsin inhibitor solution was added, pipetting was performed, and this operation was once again repeated; centrifugation was performed at 120×g for 5 minutes, and the supernatant was removed. […]

[3] = test system: cultured rabbit trigeminal nerve cells; experiment: Promoting effect on neuritogenesis in cultured rabbit trigeminal nerve cells, concentration series (Test Example 3); type: cell-based; conditions: for Ratio (%) of neuritogenesis cells: 48 h, mean±SD, control 30.4 ± 19.5
From the text: as §1
Rabbit trigeminal nerve cells were isolated according to the report by Chan et al. (Kwan Y. Chan and Richard H. Haschke. Exp. Eye Res. 41: 687-699, 1985). Specifically, a rabbit underwent cardiac perfusion with physiological saline under anesthesia with pentobarbital sodium injection (Dainippon Sumitomo Pharma), after which the trigeminal ganglia were cut out. The trigeminal ganglia cut out were washed with Hanks' balanced salt solution (HBSS, Invitrogen), and thereafter treated with 300 μg/mL collagenase-dispase (Roche) at 37° C. for 40 minutes; centrifugation was performed at 120×g for 5 minutes, and the cells were collected. The enzyme reaction was stopped with Neurobasal (registered trademark, Invitrogen) supplemented with EDTA at a final concentration of 0.1%, and the cells were suspended in culture medium, after which centrifugation was performed at 120×g for 5 minutes, and trigeminal nerve cells were prepared.
The cells prepared were seeded in a 8-well chamber slide coated with polylysine/laminin (Falcon) at about 3×10^3 cells/well; after the seeding, the cells were cultured for 24 hours. After the 24 hours, each of Compound A (final concentration: 0.001 nM (0.00026 ng/mL), 0.1 nM (0.026 ng/ml), 10 nM (2.6 ng/mL), 1000 nM (260 ng/mL)) and NGF (final concentration 1 μg/ml) as a positive control or PBS as a control, was added to the culture medium. After the addition, the cells were further cultured for 48 hours.
The culture medium used was a Neurobasal containing the B27 supplement (Invitrogen) (final concentration 2% (v/v)), L-glutamine (Invitrogen) (final concentration 1 mM) and cytosine-1-β-D(+)arabinofuranoside (final concentration 10 μM). Culturing conditions were set at a carbon dioxide concentration of 5%, an air concentration of 95%, a humidity of 100%, and a temperature of 37° C.
as §2, with “of cultivation,” for “of cultivation following the addition,”, “Stained cells” for “Stained cell”
To evaluate the degree of neuritogenesis in the cultured rabbit trigeminal nerve cells, cell body diameters and neurite lengths were measured on the computer-captured stained cell images using image analysis software (Image-Pro Plus Ver. 4.5.1, Media Cybernetics). Cells having a neurite with a length of not less than twice the diameter of the cell body were regarded as neuritogenesis cells, and the ratio (%) of the cells to the total cell count was calculated (Otori Y, Wei J Y, Barnstable C J. Invest. Opthalmol V is Sci (1998) 39, 972-981).

[4] = test system: corneal sensitivity after corneal flap creation; experiment: Improving effect on rabbit corneal hyposensitivity after corneal flap creation (Test Example 4); type: in vivo; conditions: 1 nM ophthalmic solution, instillation 50 μL four times a day for 6 weeks
Experimental: Japanese White rabbits weighing 2.5 to 3.0 kg purchased from KITAYAMA LABES were used. From arrival to the day of test completion, the animals were kept in a breeding room set at a room temperature of 23±3° C., a humidity of 55±10%, and 12-hour lighting (lighted on at 8:00, lighted off at 20:00) at one animal per cage. Each animal was fed up to 100 to 120 g of a solid food (Labo R Stock, Nosan Corporation) a day, and had free access to tap water.
Compound A was used as a test substance. The test substance was dissolved in the base shown below to obtain a concentration of 1 nM (0.00000026%) to yield an ophthalmic solution. For a control group, the following base, free of the test substance, was administered by instillation.
3. Test Procedures 1) Grouping
On the day before flap creation, the animals were macroscopically examined for the ocular surface and examined for fluorescein-stained spots in the cornea; rabbits with no abnormalities observed therein were selected, and initial values of corneal sensitivity were measured using the Cochet-Bonnet aesthesiometer (manufactured by Luneau). […]
One week, 2 weeks, 4 weeks or 6 weeks after surgery, corneal sensitivity was measured using the Cochet-Bonnet aesthesiometer. […]

## CC(=O)N1CCC(NC(=O)c2ccc(F)cc2)CC1 [Compound A, N-(1-acetylpiperidin-4-yl)-4-fluorobenzamide]
[1]
  ratio of neuritogenesis cells to all cells: 63.3±5.2%
[2]
  neuritogenesis in retinal nerve cells stained with anti-neurofilament antibody: Remarkable neuritogenesis was observed
[3]; 0.001 nM
  Ratio (%) of neuritogenesis cells: 33.6 ± 16.3%
[3]; 0.1 nM, *p<0.05 vs control
  Ratio (%) of neuritogenesis cells: 45.9 ± 15.1* %
[3]; 10 nM
  Ratio (%) of neuritogenesis cells: 37.2 ± 16.5%
[3]; 1000 nM
  Ratio (%) of neuritogenesis cells: 37.0 ± 20.0%
[3]; tested at 0.001, 0.1, 10, 1000 nM
  optimum concentration for promoting effect on neuritogenesis in trigeminal nerve cells: 0.1 nM
[4]; average, vehicle group 5.5 weeks
  time when a sense was observed for the first time after corneal flap creation (first measured value of 5 mm filament length or more): 4.1 weeks
[4]; versus vehicle instillation group, FIG. 3
  recovery from decreased corneal sensitivity after flap creation (Cochet-Bonnet aesthesiometer): accelerated recovery from decreased corneal sensitivity after flap creation
